Reference: ChEMBL document CHEMBL1146777, “Interaction with the S1 beta-pocket of urokinase: 8-heterocycle substituted and 6,8-disubstituted 2-naphthamidine urokinase inhibitors” (Bioorg Med Chem Lett, 2004)

Assays:
[1] = target: Urokinase-type plasminogen activator (Homo sapiens, UniProt P00749)
Description: Binding affinity towards Urokinase-type plasminogen activator (urokinase)

Serine protease 1 = Serine protease 1 (Homo sapiens, UniProt P07477); test: Binding affinity against trypsin
Plasminogen = Plasminogen (Homo sapiens, UniProt P00747); test: Binding affinity against plasmin
[2] = target: Tissue-type plasminogen activator (Homo sapiens, UniProt P00750); test: Binding affinity towards tissue type plasminogen activator
Prothrombin = Prothrombin (Homo sapiens, UniProt P00734); test: Binding affinity against thrombin
[3] = Binding affinity against trypsin

Sequence of Serine protease 1 (P07477 whole entry): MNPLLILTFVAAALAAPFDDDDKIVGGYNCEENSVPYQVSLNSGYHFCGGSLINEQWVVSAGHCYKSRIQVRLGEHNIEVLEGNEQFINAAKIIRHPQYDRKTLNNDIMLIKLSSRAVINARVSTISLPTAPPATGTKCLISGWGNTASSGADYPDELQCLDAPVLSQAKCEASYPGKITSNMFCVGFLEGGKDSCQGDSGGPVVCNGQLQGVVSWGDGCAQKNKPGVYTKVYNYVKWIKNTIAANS
Sequence of Tissue-type plasminogen activator (P00750 whole entry): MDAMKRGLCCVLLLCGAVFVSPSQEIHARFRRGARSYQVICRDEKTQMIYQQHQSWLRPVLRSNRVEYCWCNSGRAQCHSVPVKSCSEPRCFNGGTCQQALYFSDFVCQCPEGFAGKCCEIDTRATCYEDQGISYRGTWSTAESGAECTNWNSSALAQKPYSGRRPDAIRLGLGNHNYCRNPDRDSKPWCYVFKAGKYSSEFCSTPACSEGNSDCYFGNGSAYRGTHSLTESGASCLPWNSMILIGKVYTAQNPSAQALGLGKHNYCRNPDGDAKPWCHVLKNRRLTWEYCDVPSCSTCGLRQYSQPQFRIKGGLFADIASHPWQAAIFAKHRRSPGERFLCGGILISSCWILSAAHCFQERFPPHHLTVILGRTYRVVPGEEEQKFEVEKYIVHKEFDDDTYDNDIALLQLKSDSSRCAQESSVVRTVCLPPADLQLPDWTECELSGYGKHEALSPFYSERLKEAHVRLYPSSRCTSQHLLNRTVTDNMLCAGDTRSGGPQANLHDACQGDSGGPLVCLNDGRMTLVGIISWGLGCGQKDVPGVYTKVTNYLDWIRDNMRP
Sequence of Plasminogen (P00747 97-580 limits assumed): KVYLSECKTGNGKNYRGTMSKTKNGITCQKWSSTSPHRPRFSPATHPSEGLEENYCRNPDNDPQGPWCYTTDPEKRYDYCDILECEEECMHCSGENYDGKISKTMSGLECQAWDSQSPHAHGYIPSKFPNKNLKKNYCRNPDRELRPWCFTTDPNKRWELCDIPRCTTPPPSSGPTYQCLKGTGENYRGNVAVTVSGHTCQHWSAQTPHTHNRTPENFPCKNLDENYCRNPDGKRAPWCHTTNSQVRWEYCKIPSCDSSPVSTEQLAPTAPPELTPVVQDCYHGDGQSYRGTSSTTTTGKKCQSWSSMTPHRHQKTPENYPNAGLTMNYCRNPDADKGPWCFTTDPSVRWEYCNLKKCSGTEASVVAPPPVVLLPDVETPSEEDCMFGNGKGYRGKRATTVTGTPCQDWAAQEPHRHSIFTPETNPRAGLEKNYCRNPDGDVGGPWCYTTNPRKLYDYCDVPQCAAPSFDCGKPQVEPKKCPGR
Sequence of Plasminogen (P00747 581-810 limits assumed): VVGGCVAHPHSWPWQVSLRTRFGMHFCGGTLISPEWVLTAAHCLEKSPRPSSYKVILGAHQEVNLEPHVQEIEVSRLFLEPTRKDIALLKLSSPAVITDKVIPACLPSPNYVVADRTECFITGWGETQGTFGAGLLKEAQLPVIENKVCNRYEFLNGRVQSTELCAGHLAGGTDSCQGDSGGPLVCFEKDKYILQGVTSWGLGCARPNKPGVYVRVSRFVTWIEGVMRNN

Row | SMILES | Ki [1] | Ki (Serine protease 1) | Ki (Plasminogen) | Ki [2] | Ki (Prothrombin) | Ki [3]
1 | N=C(N)c1ccc2cc(C(=O)Nc3ccccc3)cc(-c3ccoc3)c2c1 | 91 nM | 45 nM | 320 nM | 180 nM | 130 nM | –
2 | COc1ccc2ccc(C(=N)N)cc2c1-c1cnn(S(C)(=O)=O)c1 | – | 2700 nM | 8500 nM | > 100000 nM | 7100 nM | –
3 | N=C(N)c1ccc2cc(C(=O)Nc3ccccc3)cc(C3CCOC3)c2c1 (stereo unspecified) | 106 nM | 30 nM | 400 nM | 870 nM | 360 nM | –
4 | CCSc1cc(-c2cc(C(=O)Nc3ccccc3)cc3ccc(C(=N)N)cc23)co1 | 40 nM | 11 nM | 53 nM | 3300 nM | 120 nM | –
5 | COc1ccc2ccc(C(=N)N)cc2c1C1CCOC1 (stereo unspecified) | – | 320 nM | 6000 nM | 7400 nM | 450 nM | –
6 | CCS(=O)(=O)c1cc(-c2cc(C(=O)Nc3cccc(OC4CCCC4)c3)cc3ccc(C(=N)N)cc23)co1 | 2.1 nM | 3 nM | 38 nM | 1600 nM | 610 nM | –
7 | COc1ccc2ccc(C(=N)N)cc2c1-c1ccoc1 | – | 1200 nM | 9400 nM | 18000 nM | 1300 nM | –
8 | CC(C)Oc1cccc(NC(=O)c2cc(C3CCOC3)c3cc(C(=N)N)ccc3c2)c1 (stereo unspecified) | – | 12 nM | 190 nM | 130 nM | 1100 nM | –
9 | N=C(N)c1ccc2cc(C(=O)Nc3ccc(CN)cc3)cc(Nc3ncccn3)c2c1 | – | 20 nM | 150 nM | 680 nM | 940 nM | –
10 | CCS(=O)(=O)c1cc(-c2cc(C(=O)Nc3ccccc3)cc3ccc(C(=N)N)cc23)co1 | – | 3.5 nM | 56 nM | 8300 nM | 290 nM | –
11 | [H]/N=C(/N)c1ccc2cc(C(=O)Nc3ccccc3)cc(Nc3ncccn3)c2c1 | 2 nM | 40 nM | 90 nM | 810 nM | 170 nM | –

Further lines, results first:

Row | Ki [1] | Ki (Serine protease 1) | Ki (Plasminogen) | Ki [2] | Ki (Prothrombin) | Ki [3] | SMILES
12 | – | – | – | > 100000 nM | – | 7800 nM | N=C(N)c1ccc2ccccc2c1
13 | – | 200 nM | 6600 nM | 27000 nM | 5200 nM | – | N=C(N)c1ccc2cccc(N)c2c1
14 | – | 1700 nM | 3800 nM | 24000 nM | 3200 nM | – | N=C(N)c1ccc2cccc(Nc3ncccn3)c2c1
15 | – | – | – | – | – | 330 nM | N=C(N)c1ccc2cc(C(=O)Nc3ccccc3)ccc2c1
16 | 4600 nM | – | – | – | – | – | COc1ccc2ccc(C(=N)N)cc2c1-c1cnn(C)c1
